Results as given in patent US20080064714A1, “Novel Pyrrolodihydroisoquinolines” (NYCOMED GMBH, priority 2005, published 2008).

Tests used:
[1] = system: NCl-H460 non-small cell lung cancer cells; experiment: Alamar Blue cell viability assay (anti-proliferative/cytotoxic activity); format: cell-based; settings: Homo sapiens, NCI-H460 cells, 72 hours incubation, read-out: −log IC50 NCI-H460 (mol/l), anti-proliferative/cytotoxic activity (converted)
Method: The anti-proliferative/cytotoxic activity of the compounds described herein, can be tested on NCl-H460 non-small cell lung cancer cells using the Alamar Blue cell viability assay (described in O'Brien et al. Eur J Biochem 267, 5421-5426, 2000). The compounds are dissolved as 20 mM solutions in dimethylsulfoxide (DMSO) and subsequently diluted in semi-logarithmic steps. DMSO dilutions are further diluted 1:10 into Dulbecco's modified Eagle's medium (DMEM) containing 10% fetal calf serum to a final concentration ten times as much as the final concentration in the test. NCl-H460 cells are seeded into 96 well flat bottom plates at a density of 4000 cells per well in a volume of 180 μl per well. 24 hours after seeding the 20 μl each of the compound dilutions in DMEM medium are added into each well of the 96 Well plate. Each compound dilution is tested as quadruplicates. Wells containing untreated control cells are filled with […] DMEM medium containing 1% DMSO. The cells are then incubated with the substances for 72 hours at 37° C. in a humified atmosphere containing 5% carbon dioxide. To determine the viability of the cells, 20 μl of an Alamar Blue solution (Biosource) are added and the fluorescence is measured at an extinction of 544 nm and an emission of 590 nm. For the calculation of cell viability the emission value from untreated cells is set to 100% viability and the emission rates of treated cells are set in relation to the values of untreated cells. Viabilities are expressed as % values.
The corresponding IC50 values of the compounds for anti-proliferative/cytotoxic activity are determined from the concentration-effect curves.
Representative IC50 values for anti-proliferation/cytotoxicity determined in the aforementioned assay follow from the following table A, in which the numbers of the compound correspond to the numbers of the examples.

[2] = system: NCl-H460 non-small cell lung cancer cells; experiment: modified Alamar Blue cell viability assay for compound combinations; format: cell-based; settings: in combination with the compounds according to this invention; concentration-effect curves, single compound vs. combination
Method: In order to assess favorable compound combinations in vitro which might be used for therapeutic applications, a modified Alamar Blue cell viability assay (described in O'Brien et al. Eur J Biochem 267, 5421-5426, 2000) is applied. For that purpose, anti-proliferative/cytotoxic effects of the compounds described herein in combination with other pharmacologically active compounds are assayed on NCl-H460 non-small cell lung cancer cells. The respective compounds are dissolved as 20 mM solutions in dimethylsulfoxide (DMSO) and subsequenty diluted in semi-logarithmic steps. […] To determine the viability of the cells, 20 μl of an Alamar Blue solution (Biosource) are added and the fluorescence is measured at an extinction of 544 nm and an emission of 590 nm. For the calculation of cell viability the fluorescence emission value from untreated cells is set to 100% viability and the emission values of treated cells are set in relation to the values of untreated cells. Viabilities are expressed as % values. […]
Synergistic or antagonistic effects of compound combinations can be determined from the concentration-effect curves by comparison of curve shapes and IC50 values for single compound treatment vs. the compound combination.

| melting point [°C] | SMILES | IC50 [1] [nM] | synergistic effects with the compounds according to this invention [2] |
| --- | --- | --- | --- |
| 238 to 240 | CCC(=O)c1c(-c2c[nH]c3ccccc23)c(C)n2c1-c1cc(OC)c(OC)cc1CC2 [Example 4, 1-[2-(1H-Indol-3-yl)-8,9-dimethoxy-3-methyl-5,6-dihydro-pyrrolo[2,1-a]isoquinolin-1-yl]-propan-1-one] | 158 to 1580 |  |
| 129 to 132 | CCC(=O)c1c(-c2ccc(OC)c(OC)c2F)c(C)n2c1-c1cc(OC)c(OC)cc1CC2 [Example 2, 1-[2-(2-Fluoro-3,4-dimethoxy-phenyl)-8,9-dimethoxy-3-methyl-5,6-dihydro-pyrrolo[2,1-a]isoquinolin-1-yl]-propan-1-one] |  |  |
|  | CCC(=O)c1c(-c2cc(C)c(O)c(C)c2)c(C)n2c1-c1cc(OC)c(OC)cc1CC2 [Example 1, 1-[2-(4-Hydroxy-3,5-dimethyl-phenyl)-8,9-dimethoxy-3-methyl-5,6-dihydro-pyrrolo[2,1-a]isoquinolin-1-yl]-propan-1-one] | 158 to 1580 |  |
|  | Nc1ncnc2c1nc(Sc1ccc(Cl)cc1)n2[C@@H]1O[C@@H]2COP(O)(=S)O[C@H]2[C@H]1O (stereo partly shown) [RP-8-CPT-cAMPs] |  | highly synergistic |
|  | COc1cc2c(cc1OC)-c1c(C(=O)C3CC3)c(-c3cc(C)c(O)c(C)c3)c(C)n1CC2 [Example 6, 1-Cyclopropyl-1-[2-(4-hydroxy-3,5-dimethyl-phenyl)-8,9-dimethoxy-3-methyl-5,6-dihydro-pyrrolo[2,1-a]isoquinolin-1-yl]-methanone] | 158 to 1580 |  |
| 181 to 183 | CCC(=O)c1c(-c2csc3ccccc23)c(C)n2c1-c1cc(OC)c(OC)cc1CC2 [Example 3, 1-(2-Benzo[b]thiophen-3-yl-8,9-dimethoxy-3-methyl-5,6-dihydro-pyrrolo[2,1-a]isoquinolin-1-yl)-propan-1-one] | 158 to 1580 |  |
| 209 to 211 | CCC(=O)c1c(-c2ccc(-c3ccccc3)cc2)c(C)n2c1-c1cc(OC)c(OC)cc1CC2 [Example 5, 1-(2-Biphenyl-4-yl-8,9-dimethoxy-3-methyl-5,6-dihydro-pyrrolo[2,1-a]isoquinolin-1-yl)-propan-1-one] | 158 to 1580 |  |
